Measurements published in ChEMBL document CHEMBL4800728, “Data for DCP probe JNJ-54119936” (2021).

How the values were obtained:
[1] = molecular target: Muscarinic acetylcholine receptor M4 (Homo sapiens) (UniProt P08173); settings: Compound concentration 10.0 uM
[2] = molecular target: Activin receptor type-1B (Homo sapiens) (UniProt P36896); assay: Alk4 Invitrogen kinase panel; settings: Compound concentration 10.0 uM
[3] = molecular target: 5-hydroxytryptamine receptor 1B (Homo sapiens) (UniProt P28222); settings: Compound concentration 10.0 uM
[4] = molecular target: Sodium-dependent dopamine transporter (Homo sapiens) (UniProt Q01959); settings: Compound concentration 10.0 uM
[5] = molecular target: T1, Bile acid receptor (Homo sapiens) (UniProt Q96RI1); assay: FXR Indigo Bioscience nuclear receptor screen
T1 sequence (whole entry): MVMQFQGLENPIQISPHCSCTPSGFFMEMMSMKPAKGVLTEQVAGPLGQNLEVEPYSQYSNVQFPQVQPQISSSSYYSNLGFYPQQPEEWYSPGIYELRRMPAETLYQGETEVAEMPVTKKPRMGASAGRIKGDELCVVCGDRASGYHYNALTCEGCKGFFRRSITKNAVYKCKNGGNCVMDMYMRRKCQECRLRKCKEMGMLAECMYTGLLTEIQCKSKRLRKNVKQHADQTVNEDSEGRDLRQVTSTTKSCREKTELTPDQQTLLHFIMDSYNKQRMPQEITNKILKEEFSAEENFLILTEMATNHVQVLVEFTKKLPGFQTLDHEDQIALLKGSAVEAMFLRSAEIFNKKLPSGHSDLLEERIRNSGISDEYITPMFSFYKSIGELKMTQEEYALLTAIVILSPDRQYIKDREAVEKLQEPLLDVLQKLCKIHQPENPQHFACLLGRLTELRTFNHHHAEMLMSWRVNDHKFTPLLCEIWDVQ

[6] = molecular target: Platelet-derived growth factor receptor beta (Homo sapiens) (UniProt P09619); assay: PDGFRbeta Invitrogen kinase panel; settings: Compound concentration 10.0 uM
[7] = molecular target: Oxysterols receptor LXR-beta (Homo sapiens, UniProt P55055); assay: (§1) LXRbeta In-house nuclear receptor screen
[8] = molecular target: T2, Oxysterols receptor LXR-beta (Homo sapiens) (UniProt P55055); assay: as §1; settings: Compound concentration 3.0 uM
T2 sequence (whole entry): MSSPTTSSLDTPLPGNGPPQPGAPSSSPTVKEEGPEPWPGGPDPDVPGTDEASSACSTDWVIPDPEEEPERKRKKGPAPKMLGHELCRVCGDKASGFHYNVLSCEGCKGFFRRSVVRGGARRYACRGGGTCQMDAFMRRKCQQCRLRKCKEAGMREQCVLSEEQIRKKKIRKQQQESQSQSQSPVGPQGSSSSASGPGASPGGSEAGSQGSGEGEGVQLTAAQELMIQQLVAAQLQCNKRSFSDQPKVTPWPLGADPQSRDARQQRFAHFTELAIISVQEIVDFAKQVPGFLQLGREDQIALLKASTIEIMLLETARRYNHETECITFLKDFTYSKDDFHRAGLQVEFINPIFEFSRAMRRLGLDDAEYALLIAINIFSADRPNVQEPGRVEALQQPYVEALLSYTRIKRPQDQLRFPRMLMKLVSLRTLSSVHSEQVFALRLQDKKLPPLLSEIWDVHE

[9] = molecular target: Sigma non-opioid intracellular receptor 1 (Homo sapiens, UniProt Q99720); settings: Compound concentration 10.0 uM
[10] = molecular target: Histamine H2 receptor (Homo sapiens) (UniProt P25021); settings: Compound concentration 10.0 uM
[11] = molecular target: Mu-type opioid receptor (Homo sapiens) (UniProt P35372); assay: Mu (h) CEREP screen; settings: Compound concentration 10.0 uM
[12] = molecular target: Inhibitor of nuclear factor kappa-B kinase subunit beta (Homo sapiens) (UniProt O14920); assay: IKKbeta Invitrogen kinase panel; settings: Compound concentration 10.0 uM
[13] = molecular target: Cyclin-dependent kinase 5/CDK5 activator 1 (Homo sapiens) (UniProt Q00535+Q15078); assay: CDK5/p35 Invitrogen kinase panel; format: protein-complex assay; settings: Compound concentration 10.0 uM
[14] = molecular target: Cyclin-dependent kinase 1/cyclin B (Homo sapiens) (UniProt P06493+P14635+Q8WWL7+O95067); assay: CDK1/cyclinB Invitrogen kinase panel; format: protein-complex assay; settings: Compound concentration 10.0 uM
[15] = molecular target: Nuclear receptor ROR-gamma (Homo sapiens) (UniProt P51449)
[16] = molecular target: GABA-A receptor; anion channel (Homo sapiens) (UniProt P14867+P47870+P18507+P28472+P48169+Q99928+Q9UN88+P34903+O00591+O14764+Q8N1C3+P18505+P78334+P47869+P31644+Q16445); assay: Cl- channel CEREP screen; format: protein-complex assay
[17] = molecular target: 5-hydroxytryptamine receptor 3A (Homo sapiens) (UniProt P46098); settings: Compound concentration 10.0 uM
[18] = molecular target: Insulin-like growth factor 1 receptor (Homo sapiens) (UniProt P08069); assay: IGF-1R Invitrogen kinase panel; settings: Compound concentration 10.0 uM
[19] = molecular target: Histamine H3 receptor (Homo sapiens) (UniProt Q9Y5N1); settings: Compound concentration 10.0 uM
[20] = molecular target: Substance-K receptor (Homo sapiens) (UniProt P21452); assay: NK2 (h) CEREP screen; settings: Compound concentration 10.0 uM
[21] = molecular target: Aurora kinase A (Homo sapiens) (UniProt O14965); assay: Aurora_A Invitrogen kinase panel; settings: Compound concentration 10.0 uM
[22] = molecular target: Peroxisome proliferator-activated receptor alpha (Homo sapiens, UniProt Q07869); assay: (§2) PPARalpha In-house nuclear receptor screen
[23] = molecular target: Peroxisome proliferator-activated receptor alpha (Homo sapiens) (UniProt Q07869); assay: as §2; settings: Compound concentration 3.0 uM
[24] = molecular target: Delta-type opioid receptor (Homo sapiens) (UniProt P41143); settings: Compound concentration 10.0 uM
[25] = molecular target: Type-1 angiotensin II receptor (Homo sapiens) (UniProt P30556); assay: AT1 (h) CEREP screen; settings: Compound concentration 10.0 uM
[26] = molecular target: Kappa-type opioid receptor (Homo sapiens) (UniProt P41145); assay: Kappa (KOP) (h) CEREP screen; settings: Compound concentration 10.0 uM

Chain of Delta-type opioid receptor (Homo sapiens) (P41143 whole entry): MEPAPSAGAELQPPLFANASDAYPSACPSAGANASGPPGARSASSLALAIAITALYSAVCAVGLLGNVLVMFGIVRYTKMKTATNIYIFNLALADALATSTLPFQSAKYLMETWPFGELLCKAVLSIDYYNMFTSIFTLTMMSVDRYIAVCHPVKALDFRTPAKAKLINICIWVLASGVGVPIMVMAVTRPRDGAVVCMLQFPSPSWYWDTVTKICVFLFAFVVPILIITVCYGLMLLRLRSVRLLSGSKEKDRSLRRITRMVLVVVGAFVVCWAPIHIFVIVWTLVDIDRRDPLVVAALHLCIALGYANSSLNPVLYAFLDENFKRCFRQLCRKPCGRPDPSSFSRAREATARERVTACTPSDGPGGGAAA
Chain of Nuclear receptor ROR-gamma (Homo sapiens) (P51449 whole entry): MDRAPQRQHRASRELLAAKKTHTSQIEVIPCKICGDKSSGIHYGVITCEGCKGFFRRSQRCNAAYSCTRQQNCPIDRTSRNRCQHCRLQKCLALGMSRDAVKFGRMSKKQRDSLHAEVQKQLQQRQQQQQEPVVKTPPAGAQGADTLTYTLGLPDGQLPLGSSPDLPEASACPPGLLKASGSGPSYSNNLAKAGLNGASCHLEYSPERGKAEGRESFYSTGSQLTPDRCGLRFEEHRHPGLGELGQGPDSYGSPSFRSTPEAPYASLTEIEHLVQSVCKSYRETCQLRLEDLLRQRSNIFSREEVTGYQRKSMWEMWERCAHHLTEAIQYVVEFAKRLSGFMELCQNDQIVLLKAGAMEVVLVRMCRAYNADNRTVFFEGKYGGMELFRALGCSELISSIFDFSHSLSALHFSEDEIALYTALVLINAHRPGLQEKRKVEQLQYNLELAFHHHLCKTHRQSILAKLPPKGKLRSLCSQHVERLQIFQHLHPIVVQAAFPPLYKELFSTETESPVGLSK
Chain of Sigma non-opioid intracellular receptor 1 (Q99720 whole entry): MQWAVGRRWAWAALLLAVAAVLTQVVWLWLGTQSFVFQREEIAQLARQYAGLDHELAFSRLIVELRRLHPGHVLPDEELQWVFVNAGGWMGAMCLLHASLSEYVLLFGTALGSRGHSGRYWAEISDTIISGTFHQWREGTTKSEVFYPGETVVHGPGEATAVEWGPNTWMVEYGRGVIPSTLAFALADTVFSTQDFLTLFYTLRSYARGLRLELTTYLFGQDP
Chain of Histamine H2 receptor (Homo sapiens) (P25021 whole entry): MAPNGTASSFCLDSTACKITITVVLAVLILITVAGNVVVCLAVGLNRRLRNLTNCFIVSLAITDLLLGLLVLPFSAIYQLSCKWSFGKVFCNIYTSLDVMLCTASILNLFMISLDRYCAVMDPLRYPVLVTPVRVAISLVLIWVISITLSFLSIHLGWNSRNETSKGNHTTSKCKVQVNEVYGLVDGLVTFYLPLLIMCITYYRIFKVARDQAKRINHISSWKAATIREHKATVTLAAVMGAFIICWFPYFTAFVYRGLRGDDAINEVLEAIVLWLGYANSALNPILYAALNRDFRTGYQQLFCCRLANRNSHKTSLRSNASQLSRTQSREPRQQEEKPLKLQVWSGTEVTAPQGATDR
Chain of Inhibitor of nuclear factor kappa-B kinase subunit beta (Homo sapiens) (O14920 whole entry): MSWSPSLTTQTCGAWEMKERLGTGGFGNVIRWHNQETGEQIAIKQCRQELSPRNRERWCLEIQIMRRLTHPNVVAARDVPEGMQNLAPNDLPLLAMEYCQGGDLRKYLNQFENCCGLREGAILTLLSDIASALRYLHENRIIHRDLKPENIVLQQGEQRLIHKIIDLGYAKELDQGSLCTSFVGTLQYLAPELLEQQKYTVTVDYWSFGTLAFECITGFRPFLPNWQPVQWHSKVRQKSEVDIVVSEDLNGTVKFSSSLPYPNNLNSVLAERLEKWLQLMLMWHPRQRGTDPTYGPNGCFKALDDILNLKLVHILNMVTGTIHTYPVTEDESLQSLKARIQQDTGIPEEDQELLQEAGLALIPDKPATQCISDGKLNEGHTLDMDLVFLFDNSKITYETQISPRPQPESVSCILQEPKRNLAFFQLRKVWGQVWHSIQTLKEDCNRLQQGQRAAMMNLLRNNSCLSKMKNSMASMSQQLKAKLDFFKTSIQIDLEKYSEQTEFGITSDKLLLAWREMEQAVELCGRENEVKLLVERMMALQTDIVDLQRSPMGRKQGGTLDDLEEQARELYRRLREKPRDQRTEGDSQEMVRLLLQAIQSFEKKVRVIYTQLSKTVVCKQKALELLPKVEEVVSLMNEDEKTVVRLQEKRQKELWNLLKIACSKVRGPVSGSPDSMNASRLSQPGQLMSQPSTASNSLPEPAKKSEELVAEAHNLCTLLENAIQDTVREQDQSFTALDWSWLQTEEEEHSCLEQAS
Chain of Mu-type opioid receptor (Homo sapiens) (P35372 whole entry): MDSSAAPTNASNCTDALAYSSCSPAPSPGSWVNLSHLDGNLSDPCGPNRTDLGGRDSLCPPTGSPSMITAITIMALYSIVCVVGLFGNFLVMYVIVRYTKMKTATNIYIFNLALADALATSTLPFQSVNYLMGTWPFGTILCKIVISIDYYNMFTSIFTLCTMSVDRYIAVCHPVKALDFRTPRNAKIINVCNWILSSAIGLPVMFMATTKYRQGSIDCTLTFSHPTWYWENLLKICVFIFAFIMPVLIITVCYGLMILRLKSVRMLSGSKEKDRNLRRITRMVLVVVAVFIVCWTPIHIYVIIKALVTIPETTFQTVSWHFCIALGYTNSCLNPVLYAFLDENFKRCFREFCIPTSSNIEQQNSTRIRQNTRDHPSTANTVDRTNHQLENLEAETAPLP
Chain of Platelet-derived growth factor receptor beta (Homo sapiens) (P09619 whole entry): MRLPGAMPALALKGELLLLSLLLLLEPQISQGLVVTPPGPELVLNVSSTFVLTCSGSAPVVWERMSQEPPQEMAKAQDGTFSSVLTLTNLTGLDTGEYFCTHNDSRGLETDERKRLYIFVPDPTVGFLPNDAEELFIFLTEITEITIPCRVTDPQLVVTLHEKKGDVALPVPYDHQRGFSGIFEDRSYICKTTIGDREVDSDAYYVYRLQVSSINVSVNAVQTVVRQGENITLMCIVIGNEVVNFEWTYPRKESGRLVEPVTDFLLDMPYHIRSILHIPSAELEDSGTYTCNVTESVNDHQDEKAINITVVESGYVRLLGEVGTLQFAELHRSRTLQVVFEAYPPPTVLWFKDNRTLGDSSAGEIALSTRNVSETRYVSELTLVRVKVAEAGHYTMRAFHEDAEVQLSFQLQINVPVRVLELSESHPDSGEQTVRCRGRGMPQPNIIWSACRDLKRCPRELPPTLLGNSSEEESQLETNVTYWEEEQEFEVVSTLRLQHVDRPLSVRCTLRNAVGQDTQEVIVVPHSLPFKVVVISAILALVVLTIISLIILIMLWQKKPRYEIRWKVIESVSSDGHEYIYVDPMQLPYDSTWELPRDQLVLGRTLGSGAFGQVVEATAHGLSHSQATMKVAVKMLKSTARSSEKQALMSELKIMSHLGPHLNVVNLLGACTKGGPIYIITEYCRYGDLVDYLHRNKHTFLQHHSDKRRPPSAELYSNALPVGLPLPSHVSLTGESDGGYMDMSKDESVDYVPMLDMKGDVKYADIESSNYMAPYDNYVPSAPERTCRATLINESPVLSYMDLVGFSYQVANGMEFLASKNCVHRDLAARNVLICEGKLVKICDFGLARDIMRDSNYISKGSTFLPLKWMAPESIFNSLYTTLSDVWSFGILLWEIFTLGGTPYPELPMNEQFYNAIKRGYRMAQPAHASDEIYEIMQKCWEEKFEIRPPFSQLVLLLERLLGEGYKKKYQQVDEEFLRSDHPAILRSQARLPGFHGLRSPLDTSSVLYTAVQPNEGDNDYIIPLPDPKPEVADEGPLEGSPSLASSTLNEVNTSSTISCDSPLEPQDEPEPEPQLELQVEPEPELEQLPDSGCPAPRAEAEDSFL
Chain of Cyclin-dependent kinase 5/CDK5 activator 1 (Homo sapiens) (Q00535 whole entry): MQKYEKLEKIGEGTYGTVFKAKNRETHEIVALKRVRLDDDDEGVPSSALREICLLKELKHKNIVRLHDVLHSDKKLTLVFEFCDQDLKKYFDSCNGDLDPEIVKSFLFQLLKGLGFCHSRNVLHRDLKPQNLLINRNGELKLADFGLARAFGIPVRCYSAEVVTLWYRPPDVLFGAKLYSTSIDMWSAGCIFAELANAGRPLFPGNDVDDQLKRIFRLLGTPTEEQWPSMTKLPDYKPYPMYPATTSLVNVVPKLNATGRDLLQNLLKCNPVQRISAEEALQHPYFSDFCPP
Chain of Cyclin-dependent kinase 5/CDK5 activator 1 (Homo sapiens) (Q15078 99-307 partner limits assumed): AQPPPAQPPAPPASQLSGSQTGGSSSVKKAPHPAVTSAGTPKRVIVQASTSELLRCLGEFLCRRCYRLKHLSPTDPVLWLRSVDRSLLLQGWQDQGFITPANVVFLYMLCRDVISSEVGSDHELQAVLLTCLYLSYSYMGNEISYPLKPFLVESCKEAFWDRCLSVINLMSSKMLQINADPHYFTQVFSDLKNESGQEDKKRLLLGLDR
Chain of Histamine H3 receptor (Homo sapiens) (Q9Y5N1 whole entry): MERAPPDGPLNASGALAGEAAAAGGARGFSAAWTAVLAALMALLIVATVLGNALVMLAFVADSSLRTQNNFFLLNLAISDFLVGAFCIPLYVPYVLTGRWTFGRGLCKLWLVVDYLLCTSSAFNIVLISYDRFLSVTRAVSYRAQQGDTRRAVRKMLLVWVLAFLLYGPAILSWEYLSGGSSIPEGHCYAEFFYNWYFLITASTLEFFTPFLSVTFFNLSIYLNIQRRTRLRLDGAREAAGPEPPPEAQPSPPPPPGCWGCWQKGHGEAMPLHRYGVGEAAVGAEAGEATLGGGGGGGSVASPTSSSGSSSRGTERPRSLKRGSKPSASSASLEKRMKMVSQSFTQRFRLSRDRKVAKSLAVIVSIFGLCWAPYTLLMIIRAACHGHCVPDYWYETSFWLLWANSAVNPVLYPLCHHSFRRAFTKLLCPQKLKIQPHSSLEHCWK

COc1nc2ccc([C@@](O)(c3ccccc3)C3CCN(C(C)=O)CC3)cc2c(Cl)c1Cc1ccc(-n2cccn2)cc1 [JNJ-54119936]
inhibition [1]: 8.86%
inhibition [2]: -5%
inhibition [3]: 8.87%
inhibition [4]: 21%
inhibition ([5]; Compound concentration 0.3 uM): -8.5%
inhibition ([5]; Compound concentration 1.0 uM): 5.23%
inhibition [6]: 5%
IC50 [7]: ~5 µM
inhibition [8]: 10%
inhibition [9]: 102%
inhibition [10]: -0.99%
inhibition [11]: 15%
inhibition [12]: 6%
inhibition [13]: -2%
inhibition [14]: 0%
qKD [15]: 5.3 nM
inhibition ([16]; Compound concentration 1.0 uM): 21%
inhibition ([16]; Compound concentration 10.0 uM): 44%
inhibition [17]: 9.28%
inhibition [18]: 6%
inhibition [19]: 0.46%
inhibition [20]: 23%
inhibition [21]: 9%
IC50 [22]: ~5 µM
inhibition [23]: 17%
inhibition [24]: 7.18%
inhibition [25]: 11%
inhibition [26]: 12%
